Data published in ChEMBL document CHEMBL1151847, “In vitro skin diffusion study of pure forskolin versus a forskolin-containing Plectranthus barbatus root extract” (J Nat Prod, 2009).

How the values were obtained:
Zone of skin [1] = assay: Permeability across human skin assessed as permeation lag time applied topically after 24 hrs by LC-MS analysis; type: ADME, tissue-based
Zone of skin [2] = assay: Permeability across guinea pig skin assessed as permeation lag time applied topically after 24 hrs by LC-MS analysis; type: ADME, tissue-based, Cavia porcellus; details: topical_or_ocular
Zone of skin [3] = assay: Permeability across human skin assessed as cumulative drug content applied topically after 24 hrs by LC-MS analysis; type: ADME, tissue-based
[4] = Ratio of permeability flux across guinea pig skin to permeability flux across human skin; type: ADME, tissue-based, Zone of skin
Zone of skin [5] = assay: Permeability across guinea pig skin assessed as cumulative drug content applied topically after 24 hrs by LC-MS analysis; type: ADME, tissue-based, Cavia porcellus; details: topical_or_ocular
Zone of skin [6] = assay: Permeability across human skin assessed as drug content per gram of wet tissue applied topically after 24 hrs by LC-MS analysis; type: ADME, tissue-based
Zone of skin [7] = assay: Permeability across guinea pig skin assessed as drug content per gram of wet tissue applied topically after 24 hrs by LC-MS analysis; type: ADME, tissue-based, Cavia porcellus; details: topical_or_ocular

C=C[C@@]1(C)CC(=O)[C@]2(O)[C@@]3(C)[C@@H](O)CCC(C)(C)[C@@H]3[C@H](O)[C@H](OC(C)=O)[C@@]2(C)O1 [COLFORSIN]
Activity (Zone of skin [1]): 1.5 h | Activity (Zone of skin [2]): 2.8 h | Drug uptake (Zone of skin [3]): 3.8 nmol | Ratio [4]: 19 | Drug uptake (Zone of skin [5]): 75.6 nmol | Drug uptake (Zone of skin [6]): 20 µmol | Drug uptake (Zone of skin [7]): 5.8 µmol
